Among the data in patent US20050234029A1, “Compounds” (priority 2002, published 2005) are melting point and IC50 values, retold here.

The structures appear in SMILES notation.

Test system in the first data set: not given
Assay: not given
Details: not given
For orientation: melting point means the temperature of the solid-liquid transition. The molecule `Cc1ccn2c(-c3ccnc(-c4ccc(OCCN5CCCC5)cc4)c3)c(-c3cccc(C)n3)nc2c1` [Example 38, 7-Methyl-2-(6-methyl-pyridin-2-yl)-3-{2-[4-(2-(pyrrolidin-1-yl)ethoxy)phenyl]-pyridin-4-yl}-imidazo[1,2-a]pyridine] registered a melting point of 163 °C.
Same read-out and setting: with `Fc1ccc(-c2nc3ccccn3c2-c2ccnc(-c3ccc(CN4CCCC4)cc3)c2)cc1F` [Example 19, 2-(3,4-Difluoro-phenyl)-3-[2-(4-(pyrrolidin-1-yl-methyl)phenyl)-pyridin-4-yl]-imidazo[1,2-a]pyridine] the figure was 155 °C; with `CS(=O)(=O)Nc1ccc(-c2cc(-c3c(-c4cccc(Cl)c4)nc4ccccn34)ccn2)cc1` [Example 11, 2-(3-chloro-phenyl)-3-[2-(4-(methanesulfonylamino)phenyl)-pyridin-4-yl]-imidazo[1,2-a]pyridine], 60 °C.
As for `c1ccc(-c2nc3ccccn3c2-c2ccnc(-c3ccc(CN4CCOCC4)cc3)c2)nc1` [Example 17, 3-[2-(4-(Morpholin-4-yl-methyl)-phenyl)-pyridin-4-yl]-2-pyridin-2-yl-imidazo[1,2-a]pyridine], the melting point is 80 °C (dec.).
With `Cc1cccc(-c2nc3ccccn3c2-c2ccnc(-c3ccc(C(=O)NC4CCOCC4)cc3)c2)n1` [Example 27, 3-[2-(4-((tetrahydropyran-4-yl)aminocarbonyl)phenyl)-pyridin-4-yl]-2-(6-methyl-pyridin-2-yl)-imidazo[1,2-a]pyridine], the melting point was determined as 128 °C.
The molecule `CC(=O)c1ccc(-c2cc(-c3c(-c4ccccn4)nc4ccccn34)ccn2)cc1` [Example 8, 3-[2-(4-(Acetyl)phenyl)-pyridin-4-yl]-2-(pyridin-2-yl)-imidazo[1,2-a]pyridine] registered a melting point of 214 °C.
Still for that read-out and setting: the value for `O=C(c1ccc(-c2cc(-c3c(-c4cccc(F)n4)nc4ccccn34)ccn2)cc1)N1CCOCC1` [Example 33, 2-(6-Fluoro-pyridin-2-yl)-3-{2-[4-((morpholiny-4-yl)carbonyl)phenyl]-pyridin-4-yl}-imidazo[1,2-a]pyridine] was 191 °C; that for `Clc1cccc(-c2nc3ccccn3c2-c2ccnc(-c3ccc(OCCN4CCCC4)cc3)c2)c1` [Example 37, 2-(3-Chloro-phenyl)-3-{2-[4-(2-(pyrrolidin-1-yl)ethoxy)phenyl]-pyridin-4-yl}-imidazo[1,2-a]pyridine] was 298 °C; that for `CS(=O)(=O)c1ccc(-c2cc(-c3c(-c4ccccn4)nc4ccccn34)ccn2)cc1` [Example 5, 3-[2-(4-Methanesulfonyl-phenyl)-pyridin-4-yl]-2-pyridin-2-yl-imidazo[1,2-a]pyridine] was 242 to 244 °C.
The same measure, in the same setting: with `Cc1cccc(-c2nc3ccccn3c2-c2ccnc(-c3ccc(C#N)cc3)c2)n1` [Example 4] the figure was 214 °C; with `CCN1CCN(C(=O)c2ccc(-c3cc(-c4c(-c5cccc(C)n5)nc5c(C)cccn45)ccn3)cc2)CC1` [Example 32, 8-Methyl-2-(6-methyl-pyridin-2-yl)-3-{2-[4-((1-ethyl-piperazin-4-yl)carbonyl)phenyl]-pyridin-4-yl}-imidazo[1,2-a]pyridine], 212 °C.
The same measure, in the same setting: the value for `Fc1ccc(-c2nc3ccccn3c2-c2ccnc(-c3ccc(CN4CCOCC4)cc3)c2)cc1Cl` [Example 18, 2-(3-Chloro-4-fluoro-phenyl)-3-[2-(4-(morpholin-4-yl-methyl)phenyl)-pyridin-4-yl]-imidazo[1,2-a]pyridine] was 189 °C; that for `Cc1cccc(-c2nc3ccc(Cl)cn3c2-c2ccnc(-c3ccc(CN4CCCC4)cc3)c2)n1` [Example 23, 6-Chloro-2-(6-methyl-pyridin-2-yl)-3-[2-(4-(pyrrolidin-1-yl-methyl)phenyl)-pyridin-4-yl]-imidazo[1,2-a]pyridine] was 134 °C; that for `Cc1cccc(-c2nc3c(C)cccn3c2-c2ccnc(-c3ccc(CN4CCOCC4)cc3)c2)n1` [Example 24, 8-Methyl-2-(6-methyl-pyridin-2-yl)-3-{2-[4-((morpholin-4-yl)methyl)phenyl]-pyridin-4-yl}-imidazo[1,2-a]pyridine] was 122 °C.
`Fc1ccc(-c2nc3ccccn3c2-c2ccnc(-c3ccc(CN4CCOCC4)cc3)c2)cc1F` [Example 20, 2-(3,4-Difluoro-phenyl)-3-[2-(4-(morpholin-1-yl-methyl)phenyl)-pyridin-4-yl]-imidazo[1,2-a]pyridine] registered a melting point of 205 °C.
The same measure, in the same setting: the value for `Cc1ccn2c(-c3ccnc(-c4ccc(CN5CCOCC5)cc4)c3)c(-c3cccc(C)n3)nc2c1` [Example 22, 7-Methyl-2-(6-methyl-pyridin-2-yl)-3-[2-(4-(morpholin-4-yl-methyl)phenyl)-pyridin-4-yl]-imidazo[1,2-a]pyridine] was 188 °C; that for `O=C(NC1CCOCC1)c1ccc(-c2cc(-c3c(-c4ccccn4)nc4ccccn34)ccn2)cc1` [Example 26, 3-[2-(4-((Tetrahydropyran-4-yl)aminocarbonyl)phenyl)-pyridin-4-yl]-2-pyridin-2-yl-imidazo[1,2-a]pyridine] was 179 °C.
Same read-out and setting: the value for `Cc1cccc(-c2nc3ccc(Cl)cn3c2-c2ccnc(-c3ccc(CN4CCOCC4)cc3)c2)n1` [Example 21, 6-Chloro-2-(6-methyl-pyridin-2-yl)-3-[2-(4-(morpholin-4-yl-methyl)phenyl)-pyridin-4-yl]-imidazo[1,2-a]pyridine] was 157 °C; that for `CC(=O)Nc1ccc(-c2cc(-c3c(-c4cccc(C)n4)nc4ccccn34)ccn2)cc1` [Example 10, 3-[2-(4-(methylcarbonylamino)phenyl)-pyridin-4-yl]-2-(6-methyl-pyridin-2-yl)-imidazo[1,2-a]pyridine] was 257 °C.
Same read-out and setting: with `COc1ccc(-c2cc(-c3c(-c4cccc(C)n4)nc4ccccn34)ccn2)cc1` [Example 2, 3-[2-(4-methoxy-phenyl)-pyridin-4-yl]-2-(6-methyl-pyridin-2-yl)-imidazo[1,2-a]pyridine] the figure was 174 °C.
Regarding `Cc1cccc(-c2nc3ccccn3c2-c2ccnc(-c3ccc(OC(F)(F)F)cc3)c2)n1` [Example 3, 2-(6-methyl-pyridin-2-yl)-3-[2-(4-trifluoromethoxy-phenyl)-pyridin-4-yl]-imidazo[1,2-a]pyridine], the melting point was 120 °C.
Molecule `CC(=O)Nc1ccc(-c2cc(-c3c(-c4ccccn4)nc4ccccn34)ccn2)cc1` [Example 9, 3-[2-(4-(Methylcarbonylamino)phenyl)-pyridin-4-yl]-2-pyridin-2-yl-imidazo[1,2-a]pyridine] returned a melting point of 133 °C.

Another data set addresses T1, recombinant GST-ALK5 (residues 198-503) (Homo sapiens, UniProt P36897).
T1 construct: assays using recombinant GST-ALK5 (residues 198-503)
T1 sequence (P36897 198-503): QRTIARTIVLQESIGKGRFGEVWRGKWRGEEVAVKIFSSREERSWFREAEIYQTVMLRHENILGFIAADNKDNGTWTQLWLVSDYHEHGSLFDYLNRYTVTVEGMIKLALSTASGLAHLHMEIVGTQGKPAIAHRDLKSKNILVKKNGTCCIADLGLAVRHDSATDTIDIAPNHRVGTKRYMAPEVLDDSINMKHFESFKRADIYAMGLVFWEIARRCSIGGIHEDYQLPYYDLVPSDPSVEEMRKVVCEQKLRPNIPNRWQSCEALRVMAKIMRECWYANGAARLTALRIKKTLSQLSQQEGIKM
Briefly: Alk5 fluorescence polarization assay. The format is binding. As to conditions: rhodamine green-labelled ligand 1 nM, ALK5 10 nM, read-out: ALK5 receptor modulator activity (IC50). The protocol: Assay 2 (Alk5 Fluorescence Polarization Assay)
Kinase inhibitor compounds conjugated to fluorophores, can be used as fluorescent ligands to monitor ATP competitive binding of other compounds to a given kinase. The increase in depolarization of plane polarized light, caused by release of the bound ligand into solution, is measured as a polarization/anisotropy value. This protocol details the use of a rhodamine green-labelled ligand for assays using recombinant GST-ALK5 (residues 198-503).
Assay buffer components: 62.5 mM Hepes pH 7.5 (Sigma H-4034), 1 mM DTT (Sigma D-0632), 12.5 mM MgCl2 (Sigma M-9272), 1.25 mM CHAPS (Sigma C-3023). […]
ALK5 was added to assay buffer containing the above components and 1 nM of the rhodamine green-labelled ligand so that the final ALK5 concentration was 10 nM based on active site titration of the enzyme. […] The plates were read immediately on a LJL Acquest fluorescence reader (Molecular Devices, serial number AQ1048) with excitation, emission, and dichroic filters of 485 nm, 530 nm, and 505 nm, respectively. The fluorescence polarization for each well was calculated by the Acquest reader and then imported into curve fitting software for construction of concentration response curves. The normalized response was determined relative to the high controls (1 μl DMSO in column 12, rows A-D) and the low controls (1 μl of control compound in column 12, rows E-H). […]
Background: In fluorescence polarisation assays a small probe gives low polarisation when free and higher when bound to something large.
What is called IC50 is the concentration needed to halve the response being measured. Regarding `Cc1ccn2c(-c3ccnc(-c4ccc(OCCN5CCCC5)cc4)c3)c(-c3cccc(C)n3)nc2c1` [Example 38, 7-Methyl-2-(6-methyl-pyridin-2-yl)-3-{2-[4-(2-(pyrrolidin-1-yl)ethoxy)phenyl]-pyridin-4-yl}-imidazo[1,2-a]pyridine], the IC50 is 15 nM.
Still for that read-out and setting: the value for `Cc1cccc(-c2nc3ccccn3c2-c2ccnc(-c3ccc(S(C)(=O)=O)cc3)c2)n1` [Example 6, 3-[2-(4-Methanesulfonyl-phenyl)-pyridin-4-yl]-2-(6-methyl-pyridin-2-yl)-imidazo[1,2-a]pyridine] was 11 nM.

For the next data set, the system named is TGF-β signalling (PAI-1 promoter-luciferase in HepG2 cells). The experiment in a line: Cellular transcriptional assay (PAI-1 promoter luciferase reporter). In kind it is cell-based. As to conditions: Homo sapiens, PAI-1 promoter firefly luciferase, rhTGFβ-1 1 ng/mL. The protocol:
Assay 1 (Cellular Transcriptional Assay)
These plates were placed in a cell incubator.
Columns 11 and 12 were employed as controls.
Molecule `Cc1ccn2c(-c3ccnc(-c4ccc(OCCN5CCCC5)cc4)c3)c(-c3cccc(C)n3)nc2c1` [Example 38, 7-Methyl-2-(6-methyl-pyridin-2-yl)-3-{2-[4-(2-(pyrrolidin-1-yl)ethoxy)phenyl]-pyridin-4-yl}-imidazo[1,2-a]pyridine] showed a half-inhibitory concentration (IC50) of 127 nM.
On the same count and under the same terms, with `Cc1cccc(-c2nc3ccccn3c2-c2ccnc(-c3ccc(S(C)(=O)=O)cc3)c2)n1` [Example 6, 3-[2-(4-Methanesulfonyl-phenyl)-pyridin-4-yl]-2-(6-methyl-pyridin-2-yl)-imidazo[1,2-a]pyridine] the figure was 125 nM.
